From US20250277012A1 (Protagonist Therapeutics, Inc., priority 2021, published 2025) come the findings set out here.

Read-outs that look alike come from different tables or passages of the source. Positions of bridges follow the written chain, without caps; N, C: chain ends. Non-standard residues stand in square brackets, D forms with d. Residues, ends and D or L forms follow the SMILES beside them. Groups on a side chain read outwards from the residue. *: point of attachment. Trp(6-OMe) = COc1ccc2c(C[C@H](N)C(=O)O)c[nH]c2c1; C18 diacid = O=C(O)CCCCCCCCCCCCCCCCC(=O)*; Dip = N[C@H](C(=O)O)C(c1ccccc1)c1ccccc1; Palmitoyl = CCCCCCCCCCCCCCCC(=O)*; β3hF = N[C@H](CC(=O)O)Cc1ccccc1; dPen = CC(C)(S)[C@@H](N)C(=O)O; NMeK = CN[C@@H](CCCCN)C(=O)O; Pen = CC(C)(S)[C@H](N)C(=O)O; dNMeK = CN[C@H](CCCCN)C(=O)O; Isovaleryl = CC(C)CC(=O)*; hCys = N[C@@H](CCS)C(=O)O; Dap = NC[C@H](N)C(=O)O; AEEA = NCCOCCOCC(=O)O; Ahx = NCCCCCC(=O)O

The assay deals with T1, ferroportin (Homo sapiens, UniProt Q9NP59).
T1 sequence (Q9NP59 1-571): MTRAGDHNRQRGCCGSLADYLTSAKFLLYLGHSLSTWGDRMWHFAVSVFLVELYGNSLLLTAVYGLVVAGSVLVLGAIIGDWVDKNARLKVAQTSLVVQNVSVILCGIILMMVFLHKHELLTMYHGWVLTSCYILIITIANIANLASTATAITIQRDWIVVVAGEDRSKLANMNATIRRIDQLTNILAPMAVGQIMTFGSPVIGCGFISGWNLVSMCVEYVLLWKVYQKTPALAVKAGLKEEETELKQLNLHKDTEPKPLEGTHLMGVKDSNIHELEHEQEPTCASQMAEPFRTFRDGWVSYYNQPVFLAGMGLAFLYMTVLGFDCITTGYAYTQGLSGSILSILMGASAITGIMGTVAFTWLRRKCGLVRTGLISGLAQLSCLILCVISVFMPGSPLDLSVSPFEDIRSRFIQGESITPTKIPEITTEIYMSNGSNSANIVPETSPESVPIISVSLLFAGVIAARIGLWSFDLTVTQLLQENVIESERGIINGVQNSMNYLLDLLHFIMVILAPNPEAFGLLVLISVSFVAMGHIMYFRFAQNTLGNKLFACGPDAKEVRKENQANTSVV
Put plainly: FPN activity assay: ferroportin-GFP internalization/degradation in HEK293 cells. The class given is cell-based. Further details: expressed in transfected cells. Particulars: read-out: FPN IC50. On the procedure: Following internalization, the ferroporin protein is degraded.
A retro inverse peptide is a peptide with a reversed sequence in all D amino acids. An example is that Hy-Glu-Thr-His-NH2 becomes Hy-DHis-DThr-DGlu-NH2. The EC50 of these reference compounds for ferroportin internalization/degradation was determined according to the FPN activity assay described above. These peptides served as control standards.

[1] abbreviates: ferroportin-GFP HEK293 cells, at least 18 hours.
Setting [2] is: ferroportin-GFP internalization/degradation, HEK293 cells, Table 6E.

Regarding `CCCCCCCCCCCCCCCC(=O)NCCCCCC(=O)NCCCC[C@H](NC(=O)[C@@H](NC(=O)[C@@H]1CCSSC[C@H](N)C(=O)N[C@@H](C(C)C)C(=O)N[C@@H](CCC(=O)O)C(=O)N[C@@H]([C@@H](C)O)C(=O)N[C@@H](Cc2c[nH]cn2)C(=O)N[C@@H](C(c2ccccc2)c2ccccc2)C(=O)N2CCC[C@H]2C(=O)N1)[C@@H](C)CC)C(=O)N[C@H](CC(N)=O)Cc1ccccc1` [Compd 17] (H-CVETH[Dip]P[hCys]IK([Ahx-Palmitoyl])[β3hF]-NH2; disulfide 1-8), the DC50 under setting [1] lay within 100 to 500 nM.
The same measure, in the same setting: under `CCCCCCCCCCCCCCCC(=O)NCCCCCC(=O)NCCCC[C@H](NC(=O)[C@@H](NC(=O)[C@@H]1CSSCC[C@H](NC(C)=O)C(=O)N[C@@H](CCC(=O)O)C(=O)N[C@@H]([C@@H](C)O)C(=O)N[C@@H](Cc2c[nH]cn2)C(=O)N[C@@H](C(c2ccccc2)c2ccccc2)C(=O)N2CCC[C@H]2C(=O)N1)[C@@H](C)CC)C(=O)N[C@H](CC(N)=O)Cc1ccccc1` [Compd 12] (Ac-[hCys]ETH[Dip]PCIK([Ahx-Palmitoyl])[β3hF]-NH2; disulfide 1-7) stands 100 to 500 nM; under `CCCCCCCCCCCCCCCC(=O)NCCCCCC(=O)NCCCC[C@H](NC(=O)[C@@H](NC(=O)[C@@H]1CSSCC[C@H](NC(=O)CC(C)C)C(=O)N[C@@H](CCC(=O)O)C(=O)N[C@@H]([C@@H](C)O)C(=O)N[C@@H](Cc2c[nH]cn2)C(=O)N[C@@H](C(c2ccccc2)c2ccccc2)C(=O)N2CCC[C@H]2C(=O)N1)[C@@H](C)CC)C(=O)N[C@H](CC(N)=O)Cc1ccccc1` [Compd 13] (Isovaleryl-[hCys]ETH[Dip]PCIK([Ahx-Palmitoyl])[β3hF]-NH2; disulfide 1-7), 100 to 500 nM; under `CC(C)CC(=O)N[C@@H](CCC(=O)O)C(=O)N[C@H](C(=O)N[C@@H](Cc1c[nH]cn1)C(=O)N[C@H](C(=O)N1CCC[C@H]1C(=O)N[C@H]1CSSC[C@@H](C(=O)N[C@H](CCCCN)C(=O)N[C@H](CC(=O)N[C@@H](CCCCNC(=O)COCCOCCNC(=O)COCCOCCNC(=O)CCCCCNC(=O)CCCCCCCCCCCCCCCCC(=O)O)C(=O)N[C@H](CCCCN)C(N)=O)Cc2ccccc2)NC1=O)C(c1ccccc1)c1ccccc1)[C@@H](C)O` [Compd 26] (Isovaleryl-ETH[Dip]PCC[dK][β3hF]K([AEEA-AEEA-Ahx-C18 diacid])[dK]-NH2; disulfide 6-7), 10 to 100 nM.
In the case of `CC(=O)NCCCC[C@H](C(N)=O)N(C)C(=O)C[C@H](Cc1ccccc1)NC(=O)[C@H](CCCCNC(=O)COCCOCCNC(=O)COCCOCCNC(=O)[C@H](CN)NC(=O)CCCCCCCCCCCCCCCCC(=O)O)N(C)C(=O)[C@@H]1CSSC[C@H](NC(=O)[C@@H]2CCCN2C(=O)[C@@H](NC(=O)[C@H](Cc2c[nH]cn2)NC(=O)[C@@H](NC(=O)[C@H](CCC(=O)O)NC(=O)CC(C)C)[C@@H](C)O)C(c2ccccc2)c2ccccc2)C(=O)N1` [compound 267] (Isovaleryl-ETH[Dip]PCC[NMeK]([AEEA-AEEA-Dap-C18 diacid])[β3hF][dNMeK](Ac)-NH2; disulfide 6-7), the DC50 under setting [2] fell in the range of 100 to 500 nM.
On to `CCCCCCCCCCCCCCCC(=O)NCCCCCC(=O)NCCCC[C@H](NC(=O)C[C@H](Cc1ccccc1)NC(=O)[C@@H]1CSSC(C)(C)[C@@H](NC(=O)CC(C)C)C(=O)N[C@@H]([C@@H](C)O)C(=O)N[C@@H](Cc2c[nH]cn2)C(=O)N[C@@H](C(c2ccccc2)c2ccccc2)C(=O)N2CCC[C@H]2C(=O)N[C@@H](C)C(=O)N[C@@H]([C@@H](C)CC)C(=O)N1)C(=O)N[C@H](CCCCN)C(N)=O` [compound 103] (Isovaleryl-[dPen]TH[Dip]PAIC[β3hF]K([Ahx-Palmitoyl])[dK]-NH2; disulfide 1-8), for which the DC50 under setting [1] was in the range of 100 to 500 nM.
On the same count and under the same terms, under `CCCCCCCCCCCCCCCC(=O)NCCCCCC(=O)NCCCC[C@H](NC(=O)C[C@H](Cc1ccccc1)NC(=O)[C@@H]1CSSCC[C@H](NC(=O)CC(C)C)C(=O)N[C@@H]([C@@H](C)O)C(=O)N[C@@H](Cc2cnc[nH]2)C(=O)N[C@@H](C(c2ccccc2)c2ccccc2)C(=O)N2CCC[C@H]2C(=O)N[C@@H](C)C(=O)N[C@@H]([C@@H](C)CC)C(=O)N1)C(=O)N[C@H](CCCCN)C(N)=O` [compound 110] (Isovaleryl-[hCys]TH[Dip]PAIC[β3hF]K([Ahx-Palmitoyl])[dK]-NH2; disulfide 1-8) stands 1 to 10 nM; under `CCCCCCCCCCCCCCCC(=O)NCCCCCC(=O)NCCCC[C@H](NC(=O)C[C@H](Cc1ccccc1)NC(=O)[C@@H](CCCCN)NC(=O)[C@@H]1CSSC[C@H](NC(=O)[C@@H]2CCCN2C(=O)[C@@H](NC(=O)[C@H](Cc2c[nH]cn2)NC(=O)[C@@H](NC(=O)[C@H](CCC(=O)O)NC(=O)CC(C)C)[C@@H](C)O)C(c2ccccc2)c2ccccc2)C(=O)N1)C(=O)N[C@H](CCCCN)C(N)=O` [Compd 6] (Isovaleryl-ETH[Dip]PCC[dK][β3hF]K([Ahx-Palmitoyl])[dK]-NH2; disulfide 6-7), 10 to 100 nM; under `CCCCCCCCCCCCCCCC(=O)NCCCCCC(=O)NCCCC[C@H](NC(=O)[C@@H](NC(=O)[C@@H]1CSSC[C@H](NC(C)=O)C(=O)N[C@@H](CCC(=O)O)C(=O)N[C@@H]([C@@H](C)O)C(=O)N[C@@H](Cc2c[nH]cn2)C(=O)N[C@@H](C(c2ccccc2)c2ccccc2)C(=O)N2CCC[C@H]2C(=O)N1)[C@@H](C)CC)C(=O)N[C@H](CC(N)=O)Cc1ccccc1` [Compd 9] (Ac-CETH[Dip]PCIK([Ahx-Palmitoyl])[β3hF]-NH2; disulfide 1-7), 100 to 500 nM.
Same read-out and setting: under `CCCCCCCCCCCCCCCC(=O)NCCCCCC(=O)NCCCC[C@H](NC(=O)[C@@H](NC(=O)[C@@H]1CSSC(C)(C)[C@H](N)C(=O)N[C@@H](CCC(=O)O)C(=O)N[C@@H]([C@@H](C)O)C(=O)N[C@@H](Cc2c[nH]cn2)C(=O)N[C@@H](C(c2ccccc2)c2ccccc2)C(=O)N2CCC[C@H]2C(=O)N1)[C@@H](C)CC)C(=O)N[C@H](CC(N)=O)Cc1ccccc1` [Compd 11] (H-[Pen]ETH[Dip]PCIK([Ahx-Palmitoyl])[β3hF]-NH2; disulfide 1-7) stands greater than 500 nM; under `CCCCCCCCCCCCCCCC(=O)NCCCCCC(=O)NCCCC[C@H](NC(=O)C[C@H](Cc1ccccc1)NC(=O)[C@@H](CCCCN)NC(=O)[C@@H](NC(=O)[C@@H]1CSSC[C@H](NC(=O)[C@@H](NC(=O)[C@H](CCC(=O)O)NC(=O)CC(C)C)[C@@H](C)O)C(=O)N[C@@H](C(c2ccccc2)c2ccccc2)C(=O)N2CCC[C@H]2C(=O)N1)[C@@H](C)CC)C(=O)N[C@H](CCCCN)C(N)=O` [Compd ID 2, Isovaleric Acid-E-T-[Cys]-[Dpa]-P-[Cys]-I-[(D)Lys]-[bhPhe]-[Lys(Ahx_Palm)]-[(D)Lys]-NH2] (Isovaleryl-ETC[Dip]PCI[dK][β3hF]K([Ahx-Palmitoyl])[dK]-NH2; disulfide 3-6), 100 to 500 nM.
As to `COc1ccc2c(C[C@H](NC(=O)[C@@H](NC(=O)[C@H](CCC(=O)O)NC(=O)CC(C)C)[C@@H](C)O)C(=O)N[C@H](C(=O)N3CCC[C@H]3C(=O)N[C@H]3CSSC[C@@H](C(=O)N(C)[C@@H](CCCCNC(=O)COCCOCCNC(=O)COCCOCCNC(=O)[C@H](CN)NC(=O)CCCCCCCCCCCCCCCCC(=O)O)C(=O)N[C@H](CC(=O)N[C@H](CCCCN)C(N)=O)Cc4ccccc4)NC3=O)C(c3ccccc3)c3ccccc3)c[nH]c2c1` [compound 287] (Isovaleryl-ET[Trp(6-OMe)][Dip]PCC[NMeK]([AEEA-AEEA-Dap-C18 diacid])[β3hF][dK]-NH2; disulfide 6-7), the DC50 under setting [2] is greater than 500 nM.
